Test results as given in PubChem BioAssay AID2060498 (Molecular Pharmacology Branch, DTP, NCI, 2025).

Tested on: 171881-019-R-J1-PDC tumor spheroids, viability
Experiment: Anticancer human tumor 171881-019-R-J1-PDC patient-derived invasive breast carcinoma cell line growth inhibition [GQUAD]
Details: spheroids with HUVEC and MSC; for IC50: curve of first compound; for viability, T/C: stronger effect = lower value
Procedure, shortened: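 Multi-cell-type spheroids of tumor cells with HUVEC and mesenchymal stem cells, treated with drug combinations. Concentrations descend in half-log steps from near clinical Cmax, or from 10 microM where Cmax is unknown; viability read-out.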

[1] = second compound 0.0316 µM, first compound 0.0316 µM
[2] = second compound 0.0316 µM, first compound 0.1 µM
[3] = second compound 0.0316 µM, first compound 0.316 µM
[4] = second compound 0.0316 µM, first compound 1 µM
[5] = second compound 0.0316 µM, first compound 3.16 µM
[6] = second compound 0.0316 µM, first compound 10 µM
[7] = second compound 0.1 µM, first compound 0.0316 µM
[8] = second compound 0.1 µM, first compound 0.1 µM
[9] = second compound 0.1 µM, first compound 0.316 µM
[10] = second compound 0.1 µM, first compound 1 µM
[11] = second compound 0.1 µM, first compound 3.16 µM
[12] = second compound 0.1 µM, first compound 10 µM
[13] = second compound 0.316 µM, first compound 0.0316 µM
[14] = second compound 0.316 µM, first compound 0.1 µM
[15] = second compound 0.316 µM, first compound 0.316 µM
[16] = second compound 0.316 µM, first compound 1 µM
[17] = second compound 0.316 µM, first compound 3.16 µM
[18] = second compound 0.316 µM, first compound 10 µM
[19] = second compound 1 µM, first compound 0.0316 µM
[20] = second compound 1 µM, first compound 0.1 µM
[21] = second compound 1 µM, first compound 0.316 µM
[22] = second compound 1 µM, first compound 1 µM
[23] = second compound 1 µM, first compound 3.16 µM
[24] = second compound 1 µM, first compound 10 µM
[25] = second compound 3.16 µM, first compound 0.0316 µM
[26] = second compound 3.16 µM, first compound 0.1 µM
[27] = second compound 3.16 µM, first compound 0.316 µM
[28] = second compound 3.16 µM, first compound 1 µM
[29] = second compound 3.16 µM, first compound 3.16 µM
[30] = second compound 3.16 µM, first compound 10 µM
[31] = second compound 10 µM, first compound 0.0316 µM
[32] = second compound 10 µM, first compound 0.1 µM
[33] = second compound 10 µM, first compound 0.316 µM
[34] = second compound 10 µM, first compound 1 µM
[35] = second compound 10 µM, first compound 3.16 µM
[36] = second compound 10 µM, first compound 10 µM
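Note: spheroids exposed to compounds for 7 days.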
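Throughout, for viability, T/C: 100% = DMSO vehicle control viability.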

Structure (SMILES): C#Cc1c(F)ccc2cc(O)cc(-c3ncc4c(N5CC6CCC(C5)N6)nc(OCC56CCCN5CC(F)C6)nc4c3F)c12 (centres undefined) + Cc1cnc(CNC(=O)c2c(=O)c3ccc(N4CCCN(C)CC4)nc3n3c2sc2ccccc23)cn1
- IC50 (second compound 0.0316 µM): 425 nM
- IC50 (second compound 0.1 µM): 403 nM
- IC50 (second compound 0.316 µM): 405 nM
- IC50 (second compound 1 µM): 482 nM
- IC50 (second compound 3.16 µM): 286 nM
- IC50 (second compound 10 µM): 148 nM
- viability, T/C [1]: 96.7%
- viability, T/C [2]: 71.8%
- viability, T/C [3]: 52.7%
- viability, T/C [4]: 42.3%
- viability, T/C [5]: 29.4%
- viability, T/C [6]: 26%
- viability, T/C [7]: 75.7%
- viability, T/C [8]: 66%
- viability, T/C [9]: 52%
- viability, T/C [10]: 41.3%
- viability, T/C [11]: 30.1%
- viability, T/C [12]: 27.4%
- viability, T/C [13]: 68%
- viability, T/C [14]: 62.3%
- viability, T/C [15]: 51.7%
- viability, T/C [16]: 42%
- viability, T/C [17]: 37.1%
- viability, T/C [18]: 32.3%
- viability, T/C [19]: 64.6%
- viability, T/C [20]: 56.9%
- viability, T/C [21]: 55.6%
- viability, T/C [22]: 44.2%
- viability, T/C [23]: 41%
- viability, T/C [24]: 40.9%
- viability, T/C [25]: 60.3%
- viability, T/C [26]: 52.5%
- viability, T/C [27]: 52.9%
- viability, T/C [28]: 44.3%
- viability, T/C [29]: 41.5%
- viability, T/C [30]: 41.5%
- viability, T/C [31]: 52.1%
- viability, T/C [32]: 54.5%
- viability, T/C [33]: 49.4%
- viability, T/C [34]: 41.2%
- viability, T/C [35]: 44.8%
- viability, T/C [36]: 43.5%

Structure (SMILES): CC(=O)O[C@H]1C(=O)[C@@]2(C)[C@H]([C@H](OC(=O)c3ccccc3)[C@]3(O)C[C@H](OC(=O)[C@H](O)[C@@H](NC(=O)c4ccccc4)c4ccccc4)C(C)=C1C3(C)C)[C@]1(OC(C)=O)CO[C@@H]1C[C@@H]2O + Cc1cnc(CNC(=O)c2c(=O)c3ccc(N4CCCN(C)CC4)nc3n3c2sc2ccccc23)cn1
- IC50 (second compound 0.0316 µM): < 31.6 nM
- IC50 (second compound 0.1 µM): < 31.6 nM
- IC50 (second compound 0.316 µM): < 31.6 nM
- IC50 (second compound 1 µM): < 31.6 nM
- IC50 (second compound 3.16 µM): < 31.6 nM
- IC50 (second compound 10 µM): < 31.6 nM
- viability, T/C [1]: 37.4%
- viability, T/C [2]: 29.4%
- viability, T/C [3]: 27.8%
- viability, T/C [4]: 26%
- viability, T/C [5]: 24.2%
- viability, T/C [6]: 26.7%
- viability, T/C [7]: 43.9%
- viability, T/C [8]: 38%
- viability, T/C [9]: 31.3%
- viability, T/C [10]: 33.2%
- viability, T/C [11]: 31.9%
- viability, T/C [12]: 32.9%
- viability, T/C [13]: 51.2%
- viability, T/C [14]: 44.1%
- viability, T/C [15]: 39.5%
- viability, T/C [16]: 35%
- viability, T/C [17]: 37.1%
- viability, T/C [18]: 38.5%
- viability, T/C [19]: 51.9%
- viability, T/C [20]: 45.4%
- viability, T/C [21]: 47%
- viability, T/C [22]: 40.1%
- viability, T/C [23]: 45%
- viability, T/C [24]: 50.5%
- viability, T/C [25]: 51.9%
- viability, T/C [26]: 46.5%
- viability, T/C [27]: 47%
- viability, T/C [28]: 44.2%
- viability, T/C [29]: 50.8%
- viability, T/C [30]: 49.9%
- viability, T/C [31]: 46.6%
- viability, T/C [32]: 48.4%
- viability, T/C [33]: 46%
- viability, T/C [34]: 47.6%
- viability, T/C [35]: 50.3%
- viability, T/C [36]: 51.9%
